Experimental data published in PMC8523698, “Preclinical characterization of an intravenous coronavirus 3CL protease inhibitor for the potential treatment of COVID19” (Nature Communications, 2021).
pIC50: −log10 of the molar value. Several values for one entry are separate records, joined by “and”; a condition that tells them apart may be missing. Equal entries are not always repeated.

What was measured:
[1] = biological target: CYP2D6 (Homo sapiens, UniProt P10635); assay: Reversible CYP inhibition in human liver microsomes; details: for activity at 0.214 µM: CYP 2D6, 0.214 µM; for activity at 0.979 µM: CYP 2D6, 0.979 µM; for activity at 2.09 µM: CYP 2D6, 2.09 µM; for activity at 4.48 µM: CYP 2D6, 4.48 µM; for activity at 20.5 µM: CYP 2D6, 20.5 µM; for activity at 43.8 µM: CYP 2D6, 43.8 µM; for activity at 93.5 µM: CYP 2D6, 93.5 µM
[2] = Secondary/off-target pharmacology panel (Eurofins Cerep); details: assessed at 100 µM
[3] = biological target: CYP2C9 (Homo sapiens, UniProt P11712); assay: Reversible CYP inhibition in human liver microsomes
[4] = human, microsomes, pH 7.4, Percent of Control Activity, 30-Minute Preincubation
[5] = human, microsomes, pH 7.4, Percent of Control Activity, Zero-Minute Preincubation

Sequence of CYP2D6 (P10635 whole entry): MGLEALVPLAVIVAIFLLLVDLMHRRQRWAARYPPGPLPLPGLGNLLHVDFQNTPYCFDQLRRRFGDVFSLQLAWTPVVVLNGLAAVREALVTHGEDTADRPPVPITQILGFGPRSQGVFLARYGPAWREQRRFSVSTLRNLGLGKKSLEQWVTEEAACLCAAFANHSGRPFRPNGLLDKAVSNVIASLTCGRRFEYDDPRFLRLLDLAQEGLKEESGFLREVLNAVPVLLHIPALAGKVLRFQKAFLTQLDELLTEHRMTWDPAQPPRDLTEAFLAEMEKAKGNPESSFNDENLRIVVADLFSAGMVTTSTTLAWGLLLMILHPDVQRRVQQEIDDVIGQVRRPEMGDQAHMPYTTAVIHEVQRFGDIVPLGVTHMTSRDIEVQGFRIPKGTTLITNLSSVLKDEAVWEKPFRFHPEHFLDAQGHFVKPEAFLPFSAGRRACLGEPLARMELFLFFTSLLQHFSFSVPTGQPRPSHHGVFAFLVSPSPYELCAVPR
Sequence of CYP2C9 (P11712 whole entry): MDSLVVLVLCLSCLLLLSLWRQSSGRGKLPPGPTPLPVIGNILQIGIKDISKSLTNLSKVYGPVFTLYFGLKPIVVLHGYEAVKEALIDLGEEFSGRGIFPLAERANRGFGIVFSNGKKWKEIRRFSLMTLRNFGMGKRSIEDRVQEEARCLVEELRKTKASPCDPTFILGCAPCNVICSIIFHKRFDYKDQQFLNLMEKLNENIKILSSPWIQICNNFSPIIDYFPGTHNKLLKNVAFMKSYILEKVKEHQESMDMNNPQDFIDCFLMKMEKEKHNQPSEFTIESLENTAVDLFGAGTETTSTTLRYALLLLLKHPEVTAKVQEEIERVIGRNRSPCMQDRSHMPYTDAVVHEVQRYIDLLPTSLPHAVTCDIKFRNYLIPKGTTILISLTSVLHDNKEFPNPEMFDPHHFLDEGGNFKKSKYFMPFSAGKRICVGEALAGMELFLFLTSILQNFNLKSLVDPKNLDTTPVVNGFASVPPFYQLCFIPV

With `COc1cccc2[nH]c(C(=O)N[C@@H](CC(C)C)C(=O)N[C@@H](C[C@@H]3CCNC3=O)C(=O)CO)cc12` [PF-00835231] the “Percent of Control Activity” value ([1]; CYP 2D6, 200 µM, Zero-Minute Preincubation, 200 µM) was 73.5% and 82.2%, the pIC50 ([1]; human, microsomes, pH 7.4) was less than 3.70 and the activity at 0.1 µM ([1]; human, microsomes, pH 7.4, Percent of Control Activity, CYP 2D6, 0.1 µM, 30-Minute Preincubation) was 103%. For the same molecule, the activity at 0.214 µM [1, 4] was 102%, the activity at 0.214 µM [1, 5] was 98.6% and the activity at 0.979 µM [1, 4] was 104%. It also gave an activity at 0.979 µM [1, 5] of 97.7%, an activity at 2.09 µM [1, 4] of 104% and an activity at 2.09 µM [1, 5] of 99.9%. It also gave an activity at 4.48 µM [1, 4] of 109%, an activity at 4.48 µM [1, 5] of 97.2% and an activity at 20.5 µM [1, 4] of 118%. It also gave an activity at 20.5 µM [1, 5] of 97.6%, an activity at 43.8 µM [1, 4] of 119% and an activity at 43.8 µM [1, 5] of 101%. It also gave an activity at 93.5 µM [1, 4] of 120%, an activity at 93.5 µM [1, 5] of 91.9% and an activity at 200 µM ([1]; human, microsomes, pH 7.4, Percent of Control Activity, CYP 2D6, 200 µM, 30-Minute Preincubation) of 95.7%. The activity at 200 µM ([1]; human, microsomes, pH 7.4, Percent of Control Activity, CYP 2D6, 200 µM, Zero-Minute Preincubation) was 78.8%, the “secondary (off-target) pharmacology” value [2] was “minimal potential for secondary (off-target) pharmacology” and the “Percent of Control Activity” value ([3]; CYP 2C9, 0.1 µM, 30-Minute Preincubation, 0.1 µM) was 101.5% and 104.7%. For the same molecule, the “Percent of Control Activity” value ([3]; CYP 2C9, 0.1 µM, Zero-Minute Preincubation, 0.1 µM) was 113.8% and 92.8%, the “Percent of Control Activity” value ([3]; CYP 2C9, 0.214 µM, 30-Minute Preincubation, 0.214 µM) was 103.1% and 106.7% and the “Percent of Control Activity” value ([3]; CYP 2C9, 0.214 µM, Zero-Minute Preincubation, 0.214 µM) was 100.5% and 101.3%. The “Percent of Control Activity” value ([3]; CYP 2C9, 0.979 µM, 30-Minute Preincubation, 0.979 µM) was 104.6% and 107.1%, the “Percent of Control Activity” value ([3]; CYP 2C9, 0.979 µM, Zero-Minute Preincubation, 0.979 µM) was 107.0% and the “Percent of Control Activity” value ([3]; CYP 2C9, 2.09 µM, 30-Minute Preincubation, 2.09 µM) was 102.9% and 114.0%. The “Percent of Control Activity” value ([3]; CYP 2C9, 2.09 µM, Zero-Minute Preincubation, 2.09 µM) was 97.5%, the “Percent of Control Activity” value ([3]; CYP 2C9, 4.48 µM, 30-Minute Preincubation, 4.48 µM) was 102.5% and 104.2% and the “Percent of Control Activity” value ([3]; CYP 2C9, 4.48 µM, Zero-Minute Preincubation, 4.48 µM) was 95.3% and 94.9%. For the same molecule, the “Percent of Control Activity” value ([3]; CYP 2C9, 20.5 µM, 30-Minute Preincubation, 20.5 µM) was 101.2% and 96.3%, the “Percent of Control Activity” value ([3]; CYP 2C9, 20.5 µM, Zero-Minute Preincubation, 20.5 µM) was 93.2% and the “Percent of Control Activity” value ([3]; CYP 2C9, 43.8 µM, 30-Minute Preincubation, 43.8 µM) was 91.9% and 89.1%. For the same molecule, the “Percent of Control Activity” value ([3]; CYP 2C9, 43.8 µM, Zero-Minute Preincubation, 43.8 µM) was 85.3% and 88.3%, the “Percent of Control Activity” value ([3]; CYP 2C9, 93.5 µM, 30-Minute Preincubation, 93.5 µM) was 76.4% and 76.0% and the “Percent of Control Activity” value ([3]; CYP 2C9, 93.5 µM, Zero-Minute Preincubation, 93.5 µM) was 76.7% and 76.3%. For the same molecule, the “Percent of Control Activity” value ([3]; CYP 2C9, 200 µM, 30-Minute Preincubation, 200 µM) was 74.9% and 59.1%, the “Percent of Control Activity” value ([3]; CYP 2C9, 200 µM, Zero-Minute Preincubation, 200 µM) was 71.9% and the pIC50 ([3]; human, microsomes, pH 7.4) was less than 3.70. For the same molecule, the activity at 0.1 µM ([3]; human, microsomes, pH 7.4, Percent of Control Activity, CYP 2C9, 0.1 µM, 30-Minute Preincubation) was 108%, the activity at 0.214 µM ([3]; human, microsomes, pH 7.4, Percent of Control Activity, CYP 2C9, 0.214 µM, 30-Minute Preincubation) was 102% and the activity at 0.214 µM ([3]; human, microsomes, pH 7.4, Percent of Control Activity, CYP 2C9, 0.214 µM, Zero-Minute Preincubation) was 102%. The activity at 0.979 µM ([3]; human, microsomes, pH 7.4, Percent of Control Activity, CYP 2C9, 0.979 µM, 30-Minute Preincubation) was 103%, the activity at 0.979 µM ([3]; human, microsomes, pH 7.4, Percent of Control Activity, CYP 2C9, 0.979 µM, Zero-Minute Preincubation) was 99.1% and the activity at 2.09 µM ([3]; human, microsomes, pH 7.4, Percent of Control Activity, CYP 2C9, 2.09 µM, 30-Minute Preincubation) was 99.5%. The activity at 2.09 µM ([3]; human, microsomes, pH 7.4, Percent of Control Activity, CYP 2C9, 2.09 µM, Zero-Minute Preincubation) was 110%, the activity at 4.48 µM ([3]; human, microsomes, pH 7.4, Percent of Control Activity, CYP 2C9, 4.48 µM, 30-Minute Preincubation) was 102% and the activity at 4.48 µM ([3]; human, microsomes, pH 7.4, Percent of Control Activity, CYP 2C9, 4.48 µM, Zero-Minute Preincubation) was 98.5%. It also gave an activity at 20.5 µM ([3]; human, microsomes, pH 7.4, Percent of Control Activity, CYP 2C9, 20.5 µM, 30-Minute Preincubation) of 96.7%, an activity at 20.5 µM ([3]; human, microsomes, pH 7.4, Percent of Control Activity, CYP 2C9, 20.5 µM, Zero-Minute Preincubation) of 104% and an activity at 43.8 µM ([3]; human, microsomes, pH 7.4, Percent of Control Activity, CYP 2C9, 43.8 µM, 30-Minute Preincubation) of 101%. The activity at 43.8 µM ([3]; human, microsomes, pH 7.4, Percent of Control Activity, CYP 2C9, 43.8 µM, Zero-Minute Preincubation) was 85.2%, the activity at 93.5 µM ([3]; human, microsomes, pH 7.4, Percent of Control Activity, CYP 2C9, 93.5 µM, 30-Minute Preincubation) was 92% and the activity at 93.5 µM ([3]; human, microsomes, pH 7.4, Percent of Control Activity, CYP 2C9, 93.5 µM, Zero-Minute Preincubation) was 92.6%. The activity at 200 µM ([3]; human, microsomes, pH 7.4, Percent of Control Activity, CYP 2C9, 200 µM, 30-Minute Preincubation) was 77.1% and the activity at 200 µM ([3]; human, microsomes, pH 7.4, Percent of Control Activity, CYP 2C9, 200 µM, Zero-Minute Preincubation) was 74.3%.
